Data as given in PubChem BioAssay (NCI).
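Test compounds were applied to cells in 96-well plates for 48 hours at 5 doses. GI50 is the concentration that inhibits growth by half. At the TGI there is no net growth.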

What was measured:
Assay in all cases: growth of human tumour cells (NCI), 48 h
HCT-15 colon = test system: HCT-15 colon
HT29 colon = test system: HT29 colon
SF-268 CNS = test system: SF-268 CNS
K-562 leukemia = test system: K-562 leukemia
OVCAR-4 ovarian = test system: OVCAR-4 ovarian
OVCAR-5 ovarian = test system: OVCAR-5 ovarian
HCC-2998 colon = test system: HCC-2998 colon
786-0 renal = test system: 786-0 renal
IGROV1 ovarian = test system: IGROV1 ovarian
DU-145 prostate = test system: DU-145 prostate
RPMI-8226 leukemia = test system: RPMI-8226 leukemia
COLO 205 colon = test system: COLO 205 colon
SR leukemia = test system: SR leukemia
NCI-H460 lung = test system: NCI-H460 lung
UACC-62 melanoma = test system: UACC-62 melanoma
NCI-H23 lung = test system: NCI-H23 lung
NCI/ADR-RES ovarian = test system: NCI/ADR-RES ovarian
SK-MEL-2 melanoma = test system: SK-MEL-2 melanoma
SNB-75 CNS = test system: SNB-75 CNS
SW-620 colon = test system: SW-620 colon
OVCAR-8 ovarian = test system: OVCAR-8 ovarian
CCRF-CEM leukemia = test system: CCRF-CEM leukemia
A498 renal = test system: A498 renal
SF-539 CNS = test system: SF-539 CNS
TK-10 renal = test system: TK-10 renal
HOP-92 NSCLC = test system: HOP-92 NSCLC
MCF7 breast = test system: MCF7 breast
CAKI-1 renal = test system: CAKI-1 renal
UO-31 renal = test system: UO-31 renal
NCI-H226 lung = test system: NCI-H226 lung
HCT-116 colon = test system: HCT-116 colon
EKVX NSCLC = test system: EKVX NSCLC
SK-MEL-28 melanoma = test system: SK-MEL-28 melanoma
MOLT-4 leukemia = test system: MOLT-4 leukemia
OVCAR-3 ovarian = test system: OVCAR-3 ovarian
NCI-H522 lung = test system: NCI-H522 lung
A549 NSCLC = test system: A549 NSCLC
SN12C renal = test system: SN12C renal
BT-549 breast = test system: BT-549 breast
LOX IMVI melanoma = test system: LOX IMVI melanoma
ACHN renal = test system: ACHN renal
U251 CNS = test system: U251 CNS
SNB-19 CNS = test system: SNB-19 CNS
HL-60(TB) leukemia = test system: HL-60(TB) leukemia
UACC-257 melanoma = test system: UACC-257 melanoma
MDA-MB-435 = test system: MDA-MB-435
PC-3 prostate = test system: PC-3 prostate
T-47D breast = test system: T-47D breast
SK-MEL-5 melanoma = test system: SK-MEL-5 melanoma
SK-OV-3 ovarian = test system: SK-OV-3 ovarian
HS 578T breast = test system: HS 578T breast
KM12 colon = test system: KM12 colon
M14 melanoma = test system: M14 melanoma
HOP-62 NSCLC = test system: HOP-62 NSCLC
SF-295 CNS = test system: SF-295 CNS
MALME-3M melanoma = test system: MALME-3M melanoma
MDA-MB-231 breast = test system: MDA-MB-231 breast

COC(=O)c1cc2c(cc1Cl)SC1=NN(C)C(N(C)C)N1S2(=O)=O (stereo unspecified)
GI50 (HCT-15 colon): > 100 µM
TGI (HCT-15 colon): > 100 µM
GI50 (HT29 colon): > 100 µM
TGI (HT29 colon): > 100 µM
GI50 (SF-268 CNS): > 100 µM
TGI (SF-268 CNS): > 100 µM
GI50 (K-562 leukemia): > 100 µM
TGI (K-562 leukemia): > 100 µM
GI50 (OVCAR-4 ovarian): > 100 µM
TGI (OVCAR-4 ovarian): > 100 µM
GI50 (OVCAR-5 ovarian): > 100 µM
TGI (OVCAR-5 ovarian): > 100 µM
GI50 (HCC-2998 colon): > 100 µM
TGI (HCC-2998 colon): > 100 µM
GI50 (786-0 renal): > 100 µM
TGI (786-0 renal): > 100 µM
GI50 (IGROV1 ovarian): > 100 µM
TGI (IGROV1 ovarian): > 100 µM
GI50 (DU-145 prostate): > 100 µM
TGI (DU-145 prostate): > 100 µM
GI50 (RPMI-8226 leukemia): > 100 µM
TGI (RPMI-8226 leukemia): > 100 µM
GI50 (COLO 205 colon): > 100 µM
TGI (COLO 205 colon): > 100 µM
GI50 (SR leukemia): > 100 µM
TGI (SR leukemia): > 100 µM
GI50 (NCI-H460 lung): > 100 µM
TGI (NCI-H460 lung): > 100 µM
GI50 (UACC-62 melanoma): > 100 µM
TGI (UACC-62 melanoma): > 100 µM
GI50 (NCI-H23 lung): > 100 µM
TGI (NCI-H23 lung): > 100 µM
GI50 (NCI/ADR-RES ovarian): > 100 µM
TGI (NCI/ADR-RES ovarian): > 100 µM
GI50 (SK-MEL-2 melanoma): > 100 µM
TGI (SK-MEL-2 melanoma): > 100 µM
GI50 (SNB-75 CNS): > 100 µM
TGI (SNB-75 CNS): > 100 µM
GI50 (SW-620 colon): > 100 µM
TGI (SW-620 colon): > 100 µM
GI50 (OVCAR-8 ovarian): > 100 µM
TGI (OVCAR-8 ovarian): > 100 µM
GI50 (CCRF-CEM leukemia): > 100 µM
TGI (CCRF-CEM leukemia): > 100 µM
GI50 (A498 renal): > 100 µM
TGI (A498 renal): > 100 µM
GI50 (SF-539 CNS): > 100 µM
TGI (SF-539 CNS): > 100 µM
GI50 (TK-10 renal): > 100 µM
TGI (TK-10 renal): > 100 µM
GI50 (HOP-92 NSCLC): > 100 µM
TGI (HOP-92 NSCLC): > 100 µM
GI50 (MCF7 breast): > 100 µM
TGI (MCF7 breast): > 100 µM
GI50 (CAKI-1 renal): > 100 µM
TGI (CAKI-1 renal): > 100 µM
GI50 (UO-31 renal): > 100 µM
TGI (UO-31 renal): > 100 µM
GI50 (NCI-H226 lung): > 100 µM
TGI (NCI-H226 lung): > 100 µM
GI50 (HCT-116 colon): > 100 µM
TGI (HCT-116 colon): > 100 µM
GI50 (EKVX NSCLC): > 100 µM
TGI (EKVX NSCLC): > 100 µM
GI50 (SK-MEL-28 melanoma): > 100 µM
TGI (SK-MEL-28 melanoma): > 100 µM
GI50 (MOLT-4 leukemia): 62.8 µM
TGI (MOLT-4 leukemia): > 100 µM
GI50 (OVCAR-3 ovarian): > 100 µM
TGI (OVCAR-3 ovarian): > 100 µM
GI50 (NCI-H522 lung): > 100 µM
TGI (NCI-H522 lung): > 100 µM
GI50 (A549 NSCLC): > 100 µM
TGI (A549 NSCLC): > 100 µM
GI50 (SN12C renal): > 100 µM
TGI (SN12C renal): > 100 µM
GI50 (BT-549 breast): > 100 µM
TGI (BT-549 breast): > 100 µM
GI50 (LOX IMVI melanoma): > 100 µM
TGI (LOX IMVI melanoma): > 100 µM
GI50 (ACHN renal): > 100 µM
TGI (ACHN renal): > 100 µM
GI50 (U251 CNS): > 100 µM
TGI (U251 CNS): > 100 µM
GI50 (SNB-19 CNS): > 100 µM
TGI (SNB-19 CNS): > 100 µM
GI50 (HL-60(TB) leukemia): > 100 µM
TGI (HL-60(TB) leukemia): > 100 µM
GI50 (UACC-257 melanoma): > 100 µM
TGI (UACC-257 melanoma): > 100 µM
GI50 (MDA-MB-435): > 100 µM
TGI (MDA-MB-435): > 100 µM
GI50 (PC-3 prostate): > 100 µM
TGI (PC-3 prostate): > 100 µM
GI50 (T-47D breast): > 100 µM
TGI (T-47D breast): > 100 µM
GI50 (SK-MEL-5 melanoma): > 100 µM
TGI (SK-MEL-5 melanoma): > 100 µM
GI50 (SK-OV-3 ovarian): > 100 µM
TGI (SK-OV-3 ovarian): > 100 µM
GI50 (HS 578T breast): > 100 µM
TGI (HS 578T breast): > 100 µM
GI50 (KM12 colon): > 100 µM
TGI (KM12 colon): > 100 µM
GI50 (M14 melanoma): > 100 µM
TGI (M14 melanoma): > 100 µM
GI50 (HOP-62 NSCLC): > 100 µM
TGI (HOP-62 NSCLC): > 100 µM
GI50 (SF-295 CNS): > 100 µM
TGI (SF-295 CNS): > 100 µM
GI50 (MALME-3M melanoma): > 100 µM
TGI (MALME-3M melanoma): > 100 µM
GI50 (MDA-MB-231 breast): > 100 µM
TGI (MDA-MB-231 breast): > 100 µM

ClCCN(CCCl)c1ccc(/C=N/Nc2ccnc3ccccc23)cc1
TGI (HCT-15 colon): 2.86 µM
TGI (K-562 leukemia): 3.15 µM
TGI (DU-145 prostate): 3.5 µM
TGI (RPMI-8226 leukemia): 3.97 µM
TGI (NCI-H460 lung): > 100 µM
TGI (UACC-62 melanoma): 3.23 µM
TGI (NCI-H23 lung): 3.89 µM
TGI (SW-620 colon): 4.48 µM
TGI (A498 renal): 46.7 µM
TGI (TK-10 renal): 3.15 µM
TGI (HOP-92 NSCLC): 3.38 µM
TGI (MCF7 breast): > 100 µM
TGI (CAKI-1 renal): 3.8 µM
TGI (NCI-H226 lung): 3.48 µM
TGI (A549 NSCLC): 3.38 µM
TGI (SN12C renal): 3.18 µM
TGI (LOX IMVI melanoma): 3.09 µM
TGI (ACHN renal): 3.37 µM
TGI (U251 CNS): 3.03 µM
TGI (MDA-MB-435): 3.14 µM
TGI (PC-3 prostate): 2.99 µM
TGI (SK-MEL-5 melanoma): 3.47 µM
TGI (HS 578T breast): 5.1 µM
TGI (HOP-62 NSCLC): 4.75 µM
TGI (SF-295 CNS): 2.99 µM
TGI (MALME-3M melanoma): 3.19 µM
TGI (MDA-MB-231 breast): 3.45 µM
